Results on one substance are retold here after publication PMC6212786 (Nucleic Acids Research, 2018).

The test system of this assay is T4 DNA ligase. In words: blunt-end DNA ligation assay, effect on T4 DNA ligase. The settings on record: pH 7.5. Type of assay: biochemical, bacteriophage T4.

As to “gp45: T4 sliding clamp, trimeric processivity factor for DNA polymerase”, the “stimulation of blunt-end ligation activity of T4 DNA ligase” value was “did not stimulate”.
